Results on three compounds are retold here after patent US20250382344A1, “Soluble GLP1/GIP/NPY2 Receptor Triple Agonists” (Boehringer Ingelheim International GmH, priority 2024, published 2025).

Structures are written as SMILES. Like-named read-outs stand apart in the source and are kept apart here.

The target of one data set is T1, hNPY2R (Homo sapiens, UniProt P49146).
T1 construct: expressed in transfected cells; host or cells: HEK-293 CRE-luciferase reporter cells
T1 sequence (P49146 1-381): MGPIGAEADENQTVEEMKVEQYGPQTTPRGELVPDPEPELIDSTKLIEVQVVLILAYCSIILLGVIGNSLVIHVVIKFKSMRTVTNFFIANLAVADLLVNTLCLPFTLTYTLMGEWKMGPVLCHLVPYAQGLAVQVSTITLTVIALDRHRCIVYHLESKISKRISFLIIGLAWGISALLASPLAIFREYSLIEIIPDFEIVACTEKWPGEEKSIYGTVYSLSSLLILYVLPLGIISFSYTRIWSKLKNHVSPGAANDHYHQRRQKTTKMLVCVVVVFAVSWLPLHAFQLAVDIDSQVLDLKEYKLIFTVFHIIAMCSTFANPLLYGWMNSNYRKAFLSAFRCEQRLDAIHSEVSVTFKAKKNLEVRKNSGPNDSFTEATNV
The data set is described as follows: hNPY2R CreLuc assay in 0.5% and 100% plasma (HEK-293 CRE-luciferase reporter cells). Particulars: HEK-293 reporter cells. The format is cell-based. On the technique in general: In a reporter assay the amount or activity of a reporter protein is the signal.

Data set [1] in a line: Solubility in 0.1 M phosphate buffer at pH 7. The format is physicochemical. Particulars: 0.1 M phosphate buffer at pH 7, 10 mg/mL final peptide concentration, shaking 2 hours at room temperature, peptides as TFA-salts; measured sample pH 6.5-7.0.
In a further data set the target is T2, hGLP1R (Homo sapiens, UniProt P43220).
T2 construct: expressed in transfected cells; host or cells: HEK-293 CRE-luciferase reporter cells
Description: hGLP1R CreLuc assay in 0.5% and 100% plasma (HEK-293 CRE-luciferase reporter cells). The format is cell-based. Conditions: 100% human plasma, HEK-293 reporter cells, read-out: hGLP1R 100% hP.

For a further data set, the target named is T3, hGIPR (Homo sapiens, UniProt P48546).
T3 construct: expressed in transfected cells; host or cells: CHO CRE-luciferase reporter cells
T3 sequence (P48546 22-466): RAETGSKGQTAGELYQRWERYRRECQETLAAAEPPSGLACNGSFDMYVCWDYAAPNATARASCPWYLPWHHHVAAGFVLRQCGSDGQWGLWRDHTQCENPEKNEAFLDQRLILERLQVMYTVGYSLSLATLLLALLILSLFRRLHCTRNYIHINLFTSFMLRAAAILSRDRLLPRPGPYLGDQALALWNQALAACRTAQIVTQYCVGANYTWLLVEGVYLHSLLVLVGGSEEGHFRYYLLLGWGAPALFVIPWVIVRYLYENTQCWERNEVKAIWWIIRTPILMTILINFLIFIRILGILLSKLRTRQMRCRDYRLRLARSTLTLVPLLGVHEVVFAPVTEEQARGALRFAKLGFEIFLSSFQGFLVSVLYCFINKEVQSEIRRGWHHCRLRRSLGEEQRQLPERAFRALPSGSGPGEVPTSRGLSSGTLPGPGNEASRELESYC
The data set is described as follows: hGIPR CreLuc assay in 0.5% and 100% plasma (CHO CRE-luciferase reporter cells). The format is cell-based.

A short description of data set [2]: Mouse PK after intravenous application. In kind it is in vivo. Particulars: plasma, male NMRI mice, intravenous 30-60 nmol/kg, non-compartmental analysis. In outline:
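Male NMRI mice (30–40 g) dosed 30-60 nmol/kg by tail vein in 50 mM phosphate buffer pH 7.4/3.5% mannitol. Saphenous EDTA blood sampled from conscious animals up to 56 h; plasma peptide quantified by LC-MS. Parameters from non-compartmental analysis of individual profiles.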

Another data set relates to Normal NMRI Mice. Description: Effect on acute food intake in normal NMRI mice. Conditions: male NMRI mice, single subcutaneous dose 100 nmol/kg, 24 hours food intake normalized to vehicle group. The format is in vivo. On the procedure: Male NMRI mice were obtained from Janvier (Janvier Labs, France) or from Charles River (Charles River Research Models & Services Germany GmbH) at the age of 3 weeks. The animals get a microchip (Datamars, Slim Microchip T-SL) for individual identification after delivery. They were housed with 4 mice per cage under a 12/12 dark-light cycle, light off at 3 p.m. Room temperature was controlled to 21° C.+/−1° C. and humidity 60%+/−20%. Mice had ad libitum access to regular rodent chow (KLIBA Nafag 3040 or Altromin 1324, Brogaarden, Denmark) and tap water.
Latest transfer into the HM2-System of MBRose, Denmark (real-time monitoring system of food- and water intake) of the animals 5 days before study start, to allow acclimatization to experimental conditions. As the animals were uniquely identified with the microchips, each individual animal was identified by its own microchip upon entry and exit from the food channel via antennae. Randomization of the mice for each study group (n=8; age earliest 6 weeks old) was based on food intake (middle of last three days 24 h-interval) and bodyweight directly before start of the study. A vehicle treated (50 mM phosphate buffer pH 7.4 with 3.5% mannitol) group was included in each experiment. To have the same nutrition standard for each animal the food access was locked eight hours before dark phase. One hour before night, the animals were once treated subcutaneously with the test peptide. Food intake was reported hourly for a period of 24 hours.

Setting [3] is: 0.5% human plasma, read-out: hNPY2R 0.5% hP.
The mark [4] stands for this setting: 0.5% human plasma, read-out: hGIPR 0.5% hP.

T2 sequence (P43220 24-463): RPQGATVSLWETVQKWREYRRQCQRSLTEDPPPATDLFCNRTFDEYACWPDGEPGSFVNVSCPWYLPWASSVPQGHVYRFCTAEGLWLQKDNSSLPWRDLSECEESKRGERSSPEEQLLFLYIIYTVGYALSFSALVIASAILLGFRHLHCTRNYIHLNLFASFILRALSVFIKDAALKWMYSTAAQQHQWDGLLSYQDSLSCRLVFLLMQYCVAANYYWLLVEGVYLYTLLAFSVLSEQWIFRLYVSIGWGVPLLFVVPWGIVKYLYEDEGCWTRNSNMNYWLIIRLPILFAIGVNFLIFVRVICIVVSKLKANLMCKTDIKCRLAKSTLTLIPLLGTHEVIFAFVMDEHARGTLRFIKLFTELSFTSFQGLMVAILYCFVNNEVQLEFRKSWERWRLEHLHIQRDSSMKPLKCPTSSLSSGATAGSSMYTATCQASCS

Regarding `CC[C@H](C)[C@H](NC(=O)[C@H](Cc1ccccc1)NC(=O)[C@H](C)NC(=O)C(C)(C)NC(=O)[C@H](CCC(N)=O)NC(=O)[C@H](C)NC(=O)[C@H](CCC(N)=O)NC(=O)[C@H](CCCCN)NC(=O)[C@H](CCC(=O)O)NC(=O)[C@H](CC(C)C)NC(=O)[C@](C)(CC(C)C)NC(=O)[C@@H](NC(=O)[C@H](CO)NC(=O)[C@H](Cc1ccc(O)cc1)NC(=O)[C@H](CC(=O)O)NC(=O)[C@H](CO)NC(=O)[C@@H](NC(=O)[C@H](Cc1ccccc1)NC(=O)[C@@H](NC(=O)CNC(=O)[C@H](CCC(=O)O)NC(=O)C(C)(C)NC(=O)[C@@H](N)Cc1ccc(O)cc1)[C@@H](C)O)[C@@H](C)O)[C@@H](C)CC)C(=O)N[C@@H](CCCNC(=N)N)C(=O)N[C@@H](Cc1c[nH]cn1)C(=O)N[C@@H](CC(C)C)C(=O)N[C@H](C(=O)N[C@@H](CC(N)=O)C(=O)N[C@@H](CCCCNC(=O)[C@@H](N)CCCCNC(=O)CC[C@H](NC(=O)CC[C@H](NC(=O)CC[C@H](NC(=O)CC[C@H](NC(=O)CC[C@H](NC(=O)CC[C@H](NC(=O)CCCCCCCCCCCCCCCCC(=O)O)C(=O)O)C(=O)O)C(=O)O)C(=O)O)C(=O)O)C(=O)O)C(=O)NC(C)(C)C(=O)N[C@H](C(=O)N[C@@H](CCCNC(=N)N)C(=O)N[C@@H](CCC(N)=O)C(=O)N[C@@H](CCCNC(=N)N)C(=O)N[C@@H](Cc1ccc(O)cc1)C(N)=O)[C@@H](C)O)[C@@H](C)CC` [Compound 76, Y-Aib-E-G-T-F-T-S-D-Y-S-I-aMeL-L-E-K-Q-A-Q-Aib-A-F-I-R-H-L-I-N-K(1,3)-Aib-T-R-Q-R-Y-NH2.C18DA-gGlu-gGlu-gGlu-gGlu-gGlu-gGlu-eLys(1,2)], the EC50 is 7.2 nM on hNPY2R (setting [3]); 0.3 nM at hGLP1R; 0.5 nM at hGIPR (100% human plasma, read-out: hGIPR 100% hP). Moreover, in data set [1], the solubility (in general, the concentration that dissolves in the medium under given conditions) at 2 h was found to be 8900 µg/mL. Further, the mean residence time MRT (as a rule, a mean duration of stay, worked out from the concentration-time curve) in data set [2] stood at 6.7 h. Also, the “Acute Food Intake 24 hours 100 nmol/kg [% CTL]” value with Normal NMRI Mice was found to be 55 % CTL.

`CC[C@H](C)[C@H](NC(=O)[C@H](CC(C)C)NC(=O)[C@H](Cc1c[nH]cn1)NC(=O)[C@H](CCCNC(=N)N)NC(=O)[C@@H](NC(=O)[C@H](Cc1ccccc1)NC(=O)[C@H](C)NC(=O)C(C)(C)NC(=O)[C@H](CCC(N)=O)NC(=O)[C@H](C)NC(=O)[C@H](CCC(N)=O)NC(=O)[C@H](CCCCN)NC(=O)[C@H](CCC(=O)O)NC(=O)[C@H](CC(C)C)NC(=O)C(C)(C)NC(=O)[C@@H](NC(=O)[C@H](CO)NC(=O)[C@H](Cc1ccc(O)cc1)NC(=O)[C@H](CC(=O)O)NC(=O)[C@H](CO)NC(=O)[C@@H](NC(=O)[C@H](Cc1ccccc1)NC(=O)[C@@H](NC(=O)CNC(=O)[C@H](CCC(=O)O)NC(=O)C(C)(C)NC(=O)[C@@H](N)Cc1ccc(O)cc1)[C@@H](C)O)[C@@H](C)O)[C@@H](C)CC)C(C)C)C(=O)N[C@@H](CC(N)=O)C(=O)N[C@@H](CCCCNC(=O)CCCCCNC(=O)CCCCCNC(=O)CC[C@H](NC(=O)CC[C@H](NC(=O)CC[C@H](NC(=O)CC[C@H](NC(=O)CC[C@H](NC(=O)CCCCCCCCCCCCCCCCCCC(=O)O)C(=O)O)C(=O)O)C(=O)O)C(=O)O)C(=O)O)C(=O)NC(C)(C)C(=O)N[C@H](C(=O)N[C@@H](CCCNC(=N)N)C(=O)N[C@@H](CCC(N)=O)C(=O)N[C@@H](CCCNC(=N)N)C(=O)N[C@@H](Cc1ccc(O)cc1)C(N)=O)[C@@H](C)O` [Compound 106, Y-Aib-E-G-T-F-T-S-D-Y-S-I-Aib-L-E-K-Q-A-Q-Aib-A-F-V-R-H-L-I-N-K(1,3)-Aib-T-R-Q-R-Y-NH2.C20DA-gGlu-gGlu-gGlu-gGlu-gGlu-AHX-AHX(1,2)]: the EC50 on hNPY2R (setting [3]) stood at 7.1 nM; on hGIPR (setting [4]) it was 0.2 nM. The solubility at 2 h in data set [1] came out at 9200 µg/mL. In data set [2], this compound yielded an MRT of 12.8 h. In addition, the “Acute Food Intake 24 hours 100 nmol/kg [% CTL]” value in the data set on Normal NMRI Mice came to 60 % CTL.

Regarding `CC[C@H](C)[C@H](NC(=O)[C@H](CC(C)C)NC(=O)[C@H](Cc1c[nH]cn1)NC(=O)[C@H](CCCNC(=N)N)NC(=O)[C@@H](NC(=O)[C@H](Cc1ccccc1)NC(=O)[C@H](C)NC(=O)C(C)(C)NC(=O)[C@H](CCC(N)=O)NC(=O)[C@H](C)NC(=O)[C@H](CCC(N)=O)NC(=O)[C@H](CCCCN)NC(=O)[C@H](CCC(=O)O)NC(=O)[C@H](CC(C)C)NC(=O)C(C)(C)NC(=O)[C@@H](NC(=O)[C@H](CO)NC(=O)[C@H](Cc1ccc(O)cc1)NC(=O)[C@H](CC(=O)O)NC(=O)[C@H](CO)NC(=O)[C@@H](NC(=O)[C@H](Cc1ccccc1)NC(=O)[C@@H](NC(=O)CNC(=O)[C@H](CCC(=O)O)NC(=O)C(C)(C)NC(=O)[C@@H](N)Cc1ccc(O)cc1)[C@@H](C)O)[C@@H](C)O)[C@@H](C)CC)C(C)C)C(=O)N[C@@H](CC(N)=O)C(=O)N[C@@H](CCCCNC(=O)[C@@H](N)CCCCNC(=O)CC[C@H](NC(=O)CC[C@H](NC(=O)CC[C@H](NC(=O)CC[C@H](NC(=O)CC[C@H](NC(=O)CC[C@H](NC(=O)CCCCCCCCCCCCCCCCCCC(=O)O)C(=O)O)C(=O)O)C(=O)O)C(=O)O)C(=O)O)C(=O)O)C(=O)NC(C)(C)C(=O)N[C@H](C(=O)N[C@@H](CCCNC(=N)N)C(=O)N[C@@H](CCC(N)=O)C(=O)N[C@@H](CCCNC(=N)N)C(=O)N[C@@H](Cc1ccc(O)cc1)C(N)=O)[C@@H](C)O` [Compound 125, Y-Aib-E-G-T-F-T-S-D-Y-S-I-Aib-L-E-K-Q-A-Q-Aib-A-F-V-R-H-L-I-N-K(1,3)-Aib-T-R-Q-R-Y-NH2.C20DA-gGlu-gGlu-gGlu-gGlu-gGlu-gGlu-eLys(1,2)], the EC50 at hNPY2R (100% human plasma, read-out: hNPY2R 100% hP) turned out to be 60.8 nM; on hGIPR (setting [4]), 0.4 nM. In addition, the solubility at 2 h in data set [1] came out at 6700 µg/mL. The compound also yielded an MRT in data set [2] of 21.2 h. Also, in the data set with Normal NMRI Mice, the “Acute Food Intake 24 hours 100 nmol/kg [% CTL]” value is listed as 55 % CTL.
